Results on 1 compound are retold here after paper PMC7076669 (Pharmaceutics, 2020).

Series [1] can be described thus: Visual solubility of ibuprofen in liquid excipients. Type of series: physicochemical. The note with it: for Ibuprofen Solubility in Excipient: visual solubility. The method, then:
In this method, the excipients were accurately weighed (2.5 g) in individually-labelled 20 mL scintillation vials. […] Further, the vials were placed in a shaking water bath (Fisher Scientific, Waltham, MA, USA) maintained at 25 °C for at least 15 min to allow proper mixing.

The conditions of series [2]: cited from earlier work.
Where [3] appears, read: in MCT 70 (medium chain triglycerides), 25 °C.
[4] abbreviates: in oleyl alcohol (Kollicream OA), 25 °C.
The mark [5] stands for this setting: in propylene glycol (Kollicream PG), 25 °C.

≈ marks a conversion by molar mass, not a printed value. Like-named read-outs stand apart in the source and are kept apart here.

For `CC(C)Cc1ccc(C(C)C(=O)O)cc1` (stereo not drawn) [Ibuprofen, α-methyl-4-(2-methylpropyl) benzeneacetic acid], the “Ibuprofen solubility, Percentage” value in series [1] (in Kolliphor PS 80, 25 °C) turned out to be 18%; in series [1] (setting [3]), 14%; in series [1] (in PEG 400, 25 °C), 19%; in series [1] (in Transcutol, 25 °C), 30%; in series [1] (in glycerol, 25 °C), 0.4%; in series [1] (in isopropyl myristate, 25 °C), 20%. Further, the “Ibuprofen solubility, Percentage” value in series [1] (in mineral oil, 25 °C) amounted to 6%; in series [1] (setting [4]) it was 18%; in series [1] (setting [5]), 30%. The “Ibuprofen Solubility in Excipient” value is given as 180 mg/g in series [1] (in Kolliphor PS 80, 25 °C); 140 mg/g in series [1] (setting [3]); 190 mg/g in series [1] (in PEG 400, 25 °C); 300 mg/g in series [1] (in Transcutol, 25 °C); 4 mg/g in series [1] (in glycerol, 25 °C); 200 mg/g in series [1] (in isopropyl myristate, 25 °C). The “Ibuprofen Solubility in Excipient” value in series [1] (in mineral oil, 25 °C) is reported as 60 mg/g; in series [1] (setting [4]), 180 mg/g; in series [1] (setting [5]) it was 300 mg/g. The aqueous solubility (usually the concentration that dissolves in the medium under given conditions) in series [2] (pH 4.5) was 0.084 µg/mL (≈ 0.407 µM); in series [2] (pH 5.54), 0.685 µg/mL (≈ 3.32 µM).
